Key:
Assay type in all cases: functional
Felis catus [1] = experiment: In vivo beta adrenoceptor blocking potency was determined by inhibition of tachycardia in cat
Felis catus [2] = organism: Felis catus; experiment: The compound was evaluated for inhibition of depressor response.; parameters: concentration or dose not given beside the values
Felis catus [3] = organism: Felis catus; experiment: The compound was evaluated for inhibition of depressor response

SMILES | ED50 (Felis catus [1]) | Inhibition (Felis catus [2]) | Inhibition (Felis catus [3])
N#Cc1ccccc1OCC(O)CNCCNC(=O)Cc1cc2ccccc2[nH]1 (configuration not stated) | 0.049 mg/kg | 6% | 
N#Cc1ccccc1OCC(O)CNCCNC(=O)c1ccco1 (configuration not stated) | 0.272 mg/kg | 28% | 
O=C(NCCNCC(O)COc1cccc2c1OCCO2)c1cccs1 (configuration not stated) |  | 40% | 
N#Cc1ccccc1OCC(O)CNCCNC(=O)Cc1csc(-c2ccc(Cl)cc2)n1 (configuration not stated) | 0.087 mg/kg | 0% | 
O=C(NCCNCC(O)COc1cccc2c1OCCO2)Nc1ccccc1 (configuration not stated) | 0.111 mg/kg | 0% | 
NC(=O)c1ccccc1OCC(O)CNCCNC(=O)c1cccs1 (configuration not stated) | 0.461 mg/kg | 0% | 
O=C(NCCNCC(O)COc1ccccc1)c1cccs1 (configuration not stated) | 0.104 mg/kg | 28% | 
CC(=O)Nc1ccc(OCC(O)CNC(C)C)cc1 (configuration not stated) [PRACTOLOL] | 0.167 mg/kg |  | 8%
CC(C)NCC(O)COc1cccc2ccccc12 (configuration not stated) [PROPRANOLOL] | 0.062 mg/kg | 85% | 

From ChEMBL document CHEMBL1121980, “beta-adrenergic blocking agents. 24. Heterocyclic substituted 1-(aryloxy)-3-[[(amido)alkyl]amino]propan-2-ols” (1982)
